Experimental data taken from PubChem BioAssay (NCI).
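Values below derive from 48-hour exposures of cells grown in 96-well plates, with endpoints linearly interpolated between the two concentrations bracketing the appropriate inhibition level. TGI marks complete inhibition of growth.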

Columns and labels:
Assay in all cases: NCI tumour cell line growth inhibition, 48 h
SNB-19 CNS = test system: SNB-19 CNS
SF-295 CNS = test system: SF-295 CNS
NCI-H226 lung = test system: NCI-H226 lung
SK-MEL-5 melanoma = test system: SK-MEL-5 melanoma
SW-620 colon = test system: SW-620 colon
HL-60(TB) leukemia = test system: HL-60(TB) leukemia
HCT-15 colon = test system: HCT-15 colon
DMS 273 small cell lung = test system: DMS 273 small cell lung
HCC-2998 colon = test system: HCC-2998 colon
SK-OV-3 ovarian = test system: SK-OV-3 ovarian
UO-31 renal = test system: UO-31 renal
CCRF-CEM leukemia = test system: CCRF-CEM leukemia
HOP-62 NSCLC = test system: HOP-62 NSCLC
MOLT-4 leukemia = test system: MOLT-4 leukemia
HT29 colon = test system: HT29 colon
UACC-257 melanoma = test system: UACC-257 melanoma
SF-539 CNS = test system: SF-539 CNS
U251 CNS = test system: U251 CNS
SN12C renal = test system: SN12C renal
DMS 114 small cell lung = test system: DMS 114 small cell lung
OVCAR-4 ovarian = test system: OVCAR-4 ovarian
RXF-631 renal = test system: RXF-631 renal
OVCAR-5 ovarian = test system: OVCAR-5 ovarian
NCI-H522 lung = test system: NCI-H522 lung
DLD-1 colon = test system: DLD-1 colon
HCT-116 colon = test system: HCT-116 colon
SNB-75 CNS = test system: SNB-75 CNS
TK-10 renal = test system: TK-10 renal
A549 NSCLC = test system: A549 NSCLC
LOX IMVI melanoma = test system: LOX IMVI melanoma
A498 renal = test system: A498 renal
RXF 393 renal = test system: RXF 393 renal
OVCAR-3 ovarian = test system: OVCAR-3 ovarian
SF-268 CNS = test system: SF-268 CNS
COLO 205 colon = test system: COLO 205 colon
XF 498 CNS = test system: XF 498 CNS
KM12 colon = test system: KM12 colon
SR leukemia = test system: SR leukemia
LXFL 529 NSCLC = test system: LXFL 529 NSCLC
MALME-3M melanoma = test system: MALME-3M melanoma
SK-MEL-2 melanoma = test system: SK-MEL-2 melanoma
786-0 renal = test system: 786-0 renal
CAKI-1 renal = test system: CAKI-1 renal
NCI-H460 lung = test system: NCI-H460 lung
KM20L2 colon = test system: KM20L2 colon
K-562 leukemia = test system: K-562 leukemia
IGROV1 ovarian = test system: IGROV1 ovarian
HOP-92 NSCLC = test system: HOP-92 NSCLC
HOP-18 NSCLC = test system: HOP-18 NSCLC
ACHN renal = test system: ACHN renal
M19-MEL melanoma = test system: M19-MEL melanoma
RPMI-8226 leukemia = test system: RPMI-8226 leukemia
SK-MEL-28 melanoma = test system: SK-MEL-28 melanoma
NCI-H23 lung = test system: NCI-H23 lung
EKVX NSCLC = test system: EKVX NSCLC
M14 melanoma = test system: M14 melanoma
UACC-62 melanoma = test system: UACC-62 melanoma
OVCAR-8 ovarian = test system: OVCAR-8 ovarian
SNB-78 CNS = test system: SNB-78 CNS

SMILES: C[Si]1(C)C(c2ccccc2)=CC2C(c3ccccc3)(c3ccccc3)OC21c1ccccc1 (centres undefined)
- TGI (SNB-19 CNS): > 100 µM
- TGI (SF-295 CNS): > 100 µM
- TGI (NCI-H226 lung): > 100 µM
- TGI (SK-MEL-5 melanoma): > 100 µM
- TGI (SW-620 colon): > 100 µM
- TGI (HL-60(TB) leukemia): > 100 µM
- TGI (HCT-15 colon): > 100 µM
- TGI (DMS 273 small cell lung): > 100 µM
- TGI (HCC-2998 colon): > 100 µM
- TGI (SK-OV-3 ovarian): > 100 µM
- TGI (UO-31 renal): > 100 µM
- TGI (CCRF-CEM leukemia): > 100 µM
- TGI (HOP-62 NSCLC): > 100 µM
- TGI (MOLT-4 leukemia): > 100 µM
- TGI (HT29 colon): > 100 µM
- TGI (UACC-257 melanoma): > 100 µM
- TGI (SF-539 CNS): > 100 µM
- TGI (U251 CNS): > 100 µM
- TGI (SN12C renal): > 100 µM
- TGI (DMS 114 small cell lung): > 100 µM
- TGI (OVCAR-4 ovarian): > 100 µM
- TGI (RXF-631 renal): > 100 µM
- TGI (OVCAR-5 ovarian): > 100 µM
- TGI (NCI-H522 lung): > 100 µM
- TGI (DLD-1 colon): > 100 µM
- TGI (HCT-116 colon): > 100 µM
- TGI (SNB-75 CNS): > 100 µM
- TGI (TK-10 renal): > 100 µM
- TGI (A549 NSCLC): > 100 µM
- TGI (LOX IMVI melanoma): > 100 µM
- TGI (A498 renal): > 100 µM
- TGI (RXF 393 renal): > 100 µM
- TGI (OVCAR-3 ovarian): > 100 µM
- TGI (SF-268 CNS): > 100 µM
- TGI (COLO 205 colon): > 100 µM
- TGI (XF 498 CNS): > 100 µM
- TGI (KM12 colon): > 100 µM
- TGI (SR leukemia): > 100 µM
- TGI (LXFL 529 NSCLC): > 100 µM
- TGI (MALME-3M melanoma): > 100 µM
- TGI (SK-MEL-2 melanoma): > 100 µM
- TGI (786-0 renal): > 100 µM
- TGI (CAKI-1 renal): > 100 µM
- TGI (NCI-H460 lung): > 100 µM
- TGI (KM20L2 colon): > 100 µM
- TGI (K-562 leukemia): > 100 µM
- TGI (IGROV1 ovarian): > 100 µM
- TGI (HOP-92 NSCLC): > 100 µM
- TGI (HOP-18 NSCLC): > 100 µM
- TGI (ACHN renal): > 100 µM
- TGI (M19-MEL melanoma): > 100 µM
- TGI (RPMI-8226 leukemia): > 100 µM
- TGI (SK-MEL-28 melanoma): > 100 µM
- TGI (NCI-H23 lung): > 100 µM
- TGI (EKVX NSCLC): > 100 µM
- TGI (M14 melanoma): > 100 µM
- TGI (UACC-62 melanoma): > 100 µM

SMILES: O=C1C(c2ccccc2)=C(c2ccccc2)C(c2ccc(-c3ccc(C4=C(c5ccccc5)C(=O)C(c5ccccc5)=C4c4ccccc4)cc3)cc2)=C1c1ccccc1
- TGI (SNB-19 CNS): > 100 µM
- TGI (SF-295 CNS): > 100 µM
- TGI (NCI-H226 lung): > 100 µM
- TGI (SK-MEL-5 melanoma): > 100 µM
- TGI (SW-620 colon): > 100 µM
- TGI (HL-60(TB) leukemia): > 100 µM
- TGI (HCT-15 colon): > 100 µM
- TGI (DMS 273 small cell lung): > 100 µM
- TGI (SK-OV-3 ovarian): > 100 µM
- TGI (UO-31 renal): > 100 µM
- TGI (OVCAR-8 ovarian): > 100 µM
- TGI (CCRF-CEM leukemia): > 100 µM
- TGI (HOP-62 NSCLC): > 100 µM
- TGI (MOLT-4 leukemia): > 100 µM
- TGI (HT29 colon): > 100 µM
- TGI (UACC-257 melanoma): > 100 µM
- TGI (SF-539 CNS): > 100 µM
- TGI (U251 CNS): > 100 µM
- TGI (SN12C renal): > 100 µM
- TGI (DMS 114 small cell lung): > 100 µM
- TGI (OVCAR-4 ovarian): > 100 µM
- TGI (RXF-631 renal): > 100 µM
- TGI (OVCAR-5 ovarian): > 100 µM
- TGI (NCI-H522 lung): > 100 µM
- TGI (DLD-1 colon): > 100 µM
- TGI (HCT-116 colon): > 100 µM
- TGI (SNB-75 CNS): > 100 µM
- TGI (TK-10 renal): > 100 µM
- TGI (A549 NSCLC): > 100 µM
- TGI (LOX IMVI melanoma): > 100 µM
- TGI (A498 renal): > 100 µM
- TGI (RXF 393 renal): > 100 µM
- TGI (OVCAR-3 ovarian): > 100 µM
- TGI (SF-268 CNS): > 100 µM
- TGI (COLO 205 colon): > 100 µM
- TGI (XF 498 CNS): > 100 µM
- TGI (KM12 colon): > 100 µM
- TGI (SR leukemia): > 100 µM
- TGI (LXFL 529 NSCLC): > 100 µM
- TGI (MALME-3M melanoma): > 100 µM
- TGI (SK-MEL-2 melanoma): > 100 µM
- TGI (786-0 renal): > 100 µM
- TGI (CAKI-1 renal): > 100 µM
- TGI (NCI-H460 lung): > 100 µM
- TGI (KM20L2 colon): > 100 µM
- TGI (K-562 leukemia): > 100 µM
- TGI (IGROV1 ovarian): > 100 µM
- TGI (HOP-92 NSCLC): > 100 µM
- TGI (HOP-18 NSCLC): > 100 µM
- TGI (M19-MEL melanoma): > 100 µM
- TGI (RPMI-8226 leukemia): > 100 µM
- TGI (NCI-H23 lung): > 100 µM
- TGI (EKVX NSCLC): > 100 µM
- TGI (M14 melanoma): > 100 µM
- TGI (UACC-62 melanoma): > 100 µM

SMILES: CC1(C)CC(=O)C(C(=O)C(=O)NC2=C(Cl)C(=O)c3ccccc3C2=O)C(=O)C1
- TGI (SNB-19 CNS): > 100 µM
- TGI (SF-295 CNS): > 100 µM
- TGI (NCI-H226 lung): > 100 µM
- TGI (SK-MEL-5 melanoma): > 100 µM
- TGI (SW-620 colon): > 100 µM
- TGI (HL-60(TB) leukemia): 47.2 µM
- TGI (HCT-15 colon): > 100 µM
- TGI (HCC-2998 colon): > 100 µM
- TGI (SK-OV-3 ovarian): > 100 µM
- TGI (UO-31 renal): > 100 µM
- TGI (OVCAR-8 ovarian): > 100 µM
- TGI (SNB-78 CNS): > 100 µM
- TGI (CCRF-CEM leukemia): > 100 µM
- TGI (HOP-62 NSCLC): > 100 µM
- TGI (MOLT-4 leukemia): 94.4 µM
- TGI (HT29 colon): > 100 µM
- TGI (UACC-257 melanoma): > 100 µM
- TGI (SF-539 CNS): > 100 µM
- TGI (U251 CNS): > 100 µM
- TGI (SN12C renal): > 100 µM
- TGI (DMS 114 small cell lung): > 100 µM
- TGI (OVCAR-4 ovarian): > 100 µM
- TGI (RXF-631 renal): > 100 µM
- TGI (OVCAR-5 ovarian): > 100 µM
- TGI (NCI-H522 lung): 91.6 µM
- TGI (DLD-1 colon): > 100 µM
- TGI (HCT-116 colon): > 100 µM
- TGI (SNB-75 CNS): > 100 µM
- TGI (TK-10 renal): > 100 µM
- TGI (A549 NSCLC): > 100 µM
- TGI (LOX IMVI melanoma): > 100 µM
- TGI (A498 renal): > 100 µM
- TGI (RXF 393 renal): > 100 µM
- TGI (OVCAR-3 ovarian): > 100 µM
- TGI (SF-268 CNS): > 100 µM
- TGI (COLO 205 colon): > 100 µM
- TGI (XF 498 CNS): > 100 µM
- TGI (KM12 colon): > 100 µM
- TGI (SR leukemia): > 100 µM
- TGI (LXFL 529 NSCLC): > 100 µM
- TGI (MALME-3M melanoma): > 100 µM
- TGI (SK-MEL-2 melanoma): > 100 µM
- TGI (786-0 renal): > 100 µM
- TGI (CAKI-1 renal): > 100 µM
- TGI (NCI-H460 lung): > 100 µM
- TGI (KM20L2 colon): > 100 µM
- TGI (K-562 leukemia): > 100 µM
- TGI (IGROV1 ovarian): > 100 µM
- TGI (HOP-18 NSCLC): > 100 µM
- TGI (ACHN renal): > 100 µM
- TGI (M19-MEL melanoma): > 100 µM
- TGI (RPMI-8226 leukemia): > 100 µM
- TGI (SK-MEL-28 melanoma): > 100 µM
- TGI (NCI-H23 lung): > 100 µM
- TGI (EKVX NSCLC): > 100 µM
- TGI (M14 melanoma): > 100 µM
- TGI (UACC-62 melanoma): > 100 µM
